Tested on: pentylenetetrazole-induced epilepsy
Experiment: Pentylenetetrazole-induced epilepsy model mice
Format: in vivo, C57BL/6 mice
Details: I-BRD9 10, 15, 20 mg/kg i.p. or s.c. 1 h before 45 mg/kg pentylenetetrazole i.p., compared with epilepsy model group
Text: In the present disclosure, the animals are all 8-week-old healthy male C57BL/6 mice, weighing 22-24 grams, all purchased from Hunan SJD laboratory animal Co. LTD., license number: SCXK (Xiang) 2016-0002. C57BL/6 mice in different groups were all feed in an artificial day and night 12-hour circular lighting environment (7:00 AM-7:00 PM). The mice in the groups and were kept in cages, 4-6 mice per cage. In the cages, the mice had free access to food and water; and the daily food and water were changed regularly
Animals in each group were administered with corresponding dosage of drugs or vehicle by intraperitoneal or subcutaneous injection. 1 h later, 45 mg/kg of pentylenetetrazole was intraperitoneally injected. The behaviors and conditions of the animals were observed. Later, changes of mice behaviors were closely observed through video monitoring system for 1 h, and seizure level was evaluated by Racine grading standard. The incubation period (started after the completion the administration of pentylenetetrazole, and ended by the first time muscle spasm occurred), seizure level (subjected to the highest level) and duration period of the seizure were recorded.
Seizure level of mice were referred to a modified Racine scale:
I stage: rhythmical mouth, ears and facial twitch and spasm;
II stage: nodding and more serious facial twitch and spasm;
III stage: clonus of forelimb occurs, without up-right;
IV stage: rearing with forelimb clonus;
V stage: stiffness clonus occurs in the whole body, and falling.

Compound: CCn1cc(-c2cccc(C(F)(F)F)c2)c2sc(C(=N)NC3CCS(=O)(=O)CC3)cc2c1=O [I-BRD9]
- seizure level (modified Racine scale) (FIG. 1): obviously reduced seizure level
- epilepsy susceptibility (FIG. 2): reduced epilepsy susceptibility
- incubation period (onset time of epilepsy) (FIG. 3): postpone the onset time of epilepsy
